Measurements published in patent US20220135622A1, “ANTIBACTERIAL PEPTIDES AND METHODS OF USE” (priority 2019, published 2022).
Read-outs that look alike come from different tables or passages of the source.

Key:
E. coli BW25113 = assay type: cell-based, Escherichia coli; conditions: for MIC E coli BW25113 + EDTA / MIC E. coli BW25113: Table 7; for MIC: Table 2
Procedure, shortened: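 Growth inhibition: log-phase cells (OD600 ~0.001), peptides in 2-fold series up to 400–800 μM in MHB II, EDTA 0.5 mM (E. coli) or 0.125 mM (USA300), 4 h at 37 °C, ATP luminescence readout. MICs: inoculum at OD600 ~0.0002, with or without EDTA, 20 h at 37 °C, OD600 endpoint.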

S. aureus USA300 = test: MIC assay, S. aureus USA300; assay type: cell-based, Staphylococcus aureus; conditions: for MIC S. aureus USA300: Table 7
Procedure: (§1) Bacterial growth conditions. LB or Mueller Hinton II cation-adjusted broth (MHB II, BBL 212322) was prepared according to manufacturer's instructions and supplemented with arabinose at 0.02% for overnight growth or at indicated concentrations in the description of the figures. Bacterial cultures were grown at 37° C. When appropriate, media was supplemented with kanamycin (50 μg/mL), carbenicillin (50 μg/mL), chloramphenicol (12.5 or 25 μg/mL), hygromycin (200 μg/mL), and/or gentamicin (10 μg/mL).
(§2) Peptide sensitivity and MIC assays. Lyophilized peptides (Smartox Biotechnology, CPC Scientific. ABclonal) were solubilized to 10 mM in Tris buffer, pH 8, prior to making a 2-fold dilution series in MHBII cation adjusted broth with highest final assay concentration of 400-800 μM. Bacteria were grown to log phase and added to final OD600˜0.001. The final EDTA concentration was 0.5 mM for E. coli strains and 0.125 mM for USA300. The final volume of 10 μL/well in a 384 well black, clear bottom plate (Corning) was spun <1 min at <250×g and then incubated at 37° C. After 4 h, an equal volume (10 μL) of BacTiter-Glo™ (Promega) was added to each well and luminescence was read after 5 min on an EnVision plate reader (PerkinElmer). To measure the minimal inhibitory concentrations (MICs), bacteria from fresh overnight plates or log phase cultures were diluted with or without EDTA and peptides as described above to final OD600˜0.0002. Plates were incubated at 37° C. for 20 h before measuring OD600 with an EnVision plate reader.

E. coli imp4213 = test: MIC assay, E. coli imp4213; assay type: cell-based, Escherichia coli; conditions: for MIC E. coli imp4213: Table 7
Procedure: as §1, §2

E. coli ΔwaaD = test: MIC assay, E. coli ΔwaaD; assay type: cell-based, Escherichia coli; conditions: for MIC E. coli ΔwaaD + EDTA: Table 7
Procedure: as §1, §2

E. coli ΔwaaD MCR-1 = test: MIC assay, E. coli ΔwaaD MCR-1; assay type: cell-based, Escherichia coli
Procedure: as §1, §2

E. coli ΔwaaD + vect. = test: MIC assay, E. coli ΔwaaD + vect.; assay type: cell-based, Escherichia coli; conditions: Table 7
Procedure: as §1, §2

[1] = Biolayer interferometry: captured biotinylated LAB peptides binding to LPS (KDO2-lipid A)
Procedure: Biolayer interferometry. Phospholipid (Avanti polar lipids) and KDO2-lipid A (US Biological Life Sciences) stock solutions were prepared by resuspension into 25 mM Tris pH 8, 100 mM NaCl, 0.05% LMNG buffer and solubilized overnight at 4° C. Lipid stocks were diluted prior to experiments into 25 mM Tris pH 8, 100 mM NaCl, 0.5 mg/mL BSA, 0.05% LMNG. All assays were performed at 25° C. in 25 mM Tris pH 8, 100 mM NaCl, 0.5 mg/mL BSA, 0.05% LMNG. Biotinylated-LAB peptides were loaded onto SA biosensors to a response of approximately 0.5 nm. Binding to phospholipids and KDO2-lipid A was measured at concentrations of 150, 100, 50, 25, and 10 μM with 300s association and dissociation steps. Assays were performed in triplicate on an Octet Red384 (ForteBio) and buffer and lipid signals were subtracted by using a biotin-blocked reference streptavidin (SA) biosensor. Dissociation constants for LABWT and LABWT+, interactions with KDO2-lipidA were estimated by plotting response values at equilibrium as a function of concentration and fit to a global specific binding with Hill slope model in Prism (Graphpad Software).
Based on the intriguing chemical characteristics of the LPS-PbgA interface, the possibility that a linear peptide derived from PbgA might selectively bind to LPS in vitro was considered. A peptide encompassing the lipid A-binding (LAB)-motif (209SYPMTARRFLEKHGLLD225; SEQ ID NO: 67) with an additional Gly-Ser-linker and biotin modification was generated and used in an interferometry-based assay. […] Two peptides intended to destabilize essential lipid A binding determinants were tested as controls.

E. coli + FhuAΔC/Δ4L = assay type: cell-based, Escherichia coli; conditions: Table 2; no EDTA
Description: pFhuAΔC/Δ4L was constructed by synthesizing the fhuA coding sequence lacking the N-terminal cork domain, Δ1-160, and extracellular loops L3, L4, L5, and L11 (Mohammad, et al., J Biol Chem 286, 8000-8013, (2011)).fhuAΔcΔ4L was amplified with primers N3P-105 (encoding the bla constitutive promoter, ribosome binding site, and AUG start codon from pUC19 (New England BioLabs) and N3P-107, and cloning into pACYC184 with BamHI and HindIII (New England BioLabs).
as §1
Peptide sensitivity and MIC assays. […] After 4 h, an equal volume (10 μL) of BacTiter-Glo™ (Promega) was added to each well and luminescence was read after 5 min on an EnVision plate reader (PerkinElmer). […] Plates were incubated at 37° C. for 20 h before measuring OD600 with an EnVision plate reader.

E. cloacae = test: MIC assay, E. cloacae; assay type: cell-based, Enterobacter cloacae; conditions: Table 3; + EDTA (2 mM)
Procedure: as §1
as §2, with “To measure the minimal inhibitory concentrations (MICs), bacteria from fresh overnight plates or log phase cultures were diluted with or without EDTA and peptides as described above to final OD600˜0.0002.” left out

K. pneumoniae = assay type: cell-based, Klebsiella pneumoniae; conditions: Table 3; + EDTA (2 mM)
Procedure, shortened: (§3)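 Dilute peptide 2-fold in cation-adjusted MHB II to a top final concentration of 400-800 μM. Add bacteria to final OD600 ~0.0002 along with EDTA (0.5 mM E. coli, 0.125 mM USA300). Incubate 20 h at 37° C, then measure OD600.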

A. baumannii = assay type: cell-based, Acinetobacter baumannii; conditions: Table 3, + EDTA (2 mM)
Procedure, shortened: as §3

P. aeruginosa = assay type: cell-based, Pseudomonas aeruginosa; conditions: Table 3; + EDTA (2 mM)
Procedure, shortened: as §3

E. coli ΔwaaD pmrB^D149Y = test: MIC assay, E. coli ΔwaaD pmrB^D149Y; assay type: cell-based, Escherichia coli; conditions: Table 4; + EDTA; PMX-resistant
Procedure: as §1
as §2, with “To measure the minimal inhibitory concentrations (MICs), bacteria from fresh overnight plates or log phase cultures were diluted with or without EDTA and peptides as described above to final OD600˜0.0002.” left out

wild-type E. coli strain = test: Bacterial growth inhibition, wild-type E. coli strain; assay type: cell-based, Escherichia coli
Procedure: as §1
as §2, with “To measure the minimal inhibitory concentrations (MICs), bacteria from fresh overnight plates or log phase cultures were diluted with or without EDTA and peptides as described above to final OD600˜0.0002.” left out

Substance	MIC E coli BW25113 + EDTA (E. coli BW25113) [µM]	MIC E. coli BW25113 (E. coli BW25113; no EDTA) [µM]	MIC S. aureus USA300 (S. aureus USA300) [µM]	MIC E. coli imp4213 (E. coli imp4213)	MIC E. coli ΔwaaD + EDTA (E. coli ΔwaaD; + EDTA) [µM]	further results
Ac-GSSYPMTARRFLEKHGL-NH2 [compound 8]	800	>800	>800	200 µM	800	–
Ac-GSSYPMTARRFLEKHGLL-NH2 [compound 7]	400	>800	>800	200/400	400	–
Ac-GSSYPMTARRFLEKHGLLR-NH2 [compound 13]	800	>800	>800	200 µM	200	MIC E coli ΔwaaD − MCR1 (E. coli ΔwaaD MCR-1; Table 7): 200 µM; MIC E. coli ΔwaaD + vect. (E. coli ΔwaaD + vect.): 800 µM
Ac-GSSYPMTARRFLEKWGLLD-NH2 [compound 6]	800	>800	>800	400 µM	>800	–
Ac-GSSYPMTARRFLEKWGLLR-NH2 (N-terminus and C-terminus assumed) [compound 5]	400	–	–	–	100	–
Ac-SSYPMTARRFLEKHGLLD-NH2 [compound 9]	>800	>800	>800	800 µM	>800	–
Ac-SYPMTARRFLEKWGLLR-NH2 [SEQ ID NO: 68, SYPMTARRFLEKWGLLR]	–	–	–	–	–	improved affinity towards LPS ([1]; LABWT+ relative to LABWT): ~1.5 fold; Kd ([1]; LPS (KDO2-lipid A), biotinylated peptide on SA biosensor, 25° C., estimated from equilibrium responses): ~55 µM; selective binding to LPS over PLs ([1]; versus the major PLs found in E. coli): maintaining selectivity over PL binding; MIC (E. coli BW25113; + 0.5 mM EDTA): 200 µM; MIC (E. coli BW25113; wild-type strain, no EDTA): >800 µM; MIC (S. aureus USA300; Table 2, Gram-positive wild-type strain): >800 µM; MIC (E. coli imp4213; Table 2, no EDTA): 25 µM; MIC (E. coli + FhuAΔC/Δ4L): 50 µM; MIC (E. coli ΔwaaD; Table 2, no EDTA): 400 µM; MIC (E. coli ΔwaaD; Table 4, + EDTA): 100 µM; MIC (E. cloacae): 100 µM; MIC (K. pneumoniae): >400 µM; MIC (A. baumannii): 400 µM; MIC (A. baumannii; listed as LABWT+): 200 µM; MIC (P. aeruginosa): 400 µM; MIC (E. coli ΔwaaD pmrB^D149Y): 100 µM; MIC (E. coli ΔwaaD MCR-1; Table 4, + EDTA, PMX-resistant): 100 µM; growth inhibition (wild-type E. coli strain): failed to inhibit the growth
Ac-YPMTARRFLEKHGL-NH2 [compound 12]	800	–	–	–	400	–
